Source: BindingDB's records for doi:10.1021/jm00088a003 (Merck Research Laboratories, 1992)

target: T1, Dimer of Gag-Pol polyprotein [489-587] (Human immunodeficiency virus 1, UniProt P12497); experiment: Protease Inhibition Assay; conditions: pH 5.5; 30 °C
T1 construct: 489-587
Protocol: Sensitivity of HIV-1 protease activity to protease inhibitors was determined by a peptide substrate cleavage assay. Protease products were analyzed on a reverse-phase high-pressure liquid chromatograph.

Compound | IC50
CC(C)(C)OC(=O)N[C@@H](Cc1ccc(OCCN2CCOCC2)cc1)[C@@H](O)C[C@@H](Cc1ccccc1)C(=O)N[C@H]1c2ccccc2C[C@H]1O [tert-butyl N-[(2S,3S,5R)-5-benzyl-3-hydroxy-5-{[(1S,2R)-2-hydroxy-2,3-dihydro-1H-inden-1-yl]carbamoyl}-1-{4-[2-(morpholin-4-yl)ethoxy]phenyl}pentan-2-yl]carbamate] | 0.55 nM
CC(C)(C)OC(=O)N[C@@H](Cc1ccc(OCCN2CCOCC2)cc1)[C@@H](O)C[C@@H](Cc1ccc(OCCN2CCOCC2)cc1)C(=O)N[C@H]1c2ccccc2C[C@H]1O [tert-butyl N-[(2S,3S,5R)-3-hydroxy-5-{[(1S,2R)-2-hydroxy-2,3-dihydro-1H-inden-1-yl]carbamoyl}-1-{4-[2-(morpholin-4-yl)ethoxy]phenyl}-5-({4-[2-(morpholin-4-yl)ethoxy]phenyl}methyl)pentan-2-yl]carbamate] | 1.9 nM
CC(C)(C)OC(=O)N[C@@H](Cc1ccccc1)[C@@H](O)C[C@@H](Cc1ccc(OCCN2CCCC2)cc1)C(=O)N[C@H]1c2ccccc2C[C@H]1O [tert-butyl N-[(2S,3S,5R)-3-hydroxy-5-{[(1S,2R)-2-hydroxy-2,3-dihydro-1H-inden-1-yl]carbamoyl}-1-phenyl-5-({4-[2-(pyrrolidin-1-yl)ethoxy]phenyl}methyl)pentan-2-yl]carbamate] | 1.8 nM
CC(C)(C)OC(=O)N[C@@H](Cc1ccccc1)[C@@H](O)C[C@@H](Cc1ccc(OCCN2CC[S+]([O-])CC2)cc1)C(=O)N[C@H]1c2ccccc2C[C@H]1O [tert-butyl N-[(2S,3S,5R)-3-hydroxy-5-{[(1S,2R)-2-hydroxy-2,3-dihydro-1H-inden-1-yl]carbamoyl}-5-({4-[2-(1-oxo-1,4-thiomorpholin-4-yl)ethoxy]phenyl}methyl)-1-phenylpentan-2-yl]carbamate] | 0.07 nM
CC(C)(C)OC(=O)N[C@@H](Cc1ccccc1)[C@@H](O)C[C@@H](Cc1ccc(OCc2ccccc2)cc1)C(=O)N[C@H]1c2ccccc2C[C@H]1O [N-(2(R)-Hydroxy-1(S)-indany1)-5(S)-[(tert-butyloxycarbonyl)amino]-4(S)-hydroxy-6-phenyl-2(R)-[[4-(benzyloxy)phenyl]methyl]hexanamide] | 0.18 nM
CC(C)(C)OC(=O)N[C@@H](Cc1ccccc1)[C@@H](O)C[C@@H](Cc1ccc(OCCN2CCSCC2)cc1)C(=O)N[C@H]1c2ccccc2C[C@H]1O [N-(2(R)-Hydroxy-1(S)-indanyl)-5(S)-[(tert-butyloxycarbonyl)amino]-4(S)-hydroxy-6-phenyl-2(R)-[[4-[2-(thiamorpholin-4-yl)ethoxy]phenyl]methyl]hexanamide] | 0.47 nM
CC(C)(C)OC(=O)N[C@@H](Cc1ccccc1)[C@@H](O)C[C@@H](Cc1ccc(OCCN2CCCCC2)cc1)C(=O)N[C@H]1c2ccccc2C[C@H]1O [tert-butyl N-[(2S,3S,5R)-3-hydroxy-5-{[(1S,2R)-2-hydroxy-2,3-dihydro-1H-inden-1-yl]carbamoyl}-1-phenyl-5-({4-[2-(piperidin-1-yl)ethoxy]phenyl}methyl)pentan-2-yl]carbamate] | 1.6 nM
CN(C)CCOc1ccc(C[C@H](C[C@H](O)[C@H](Cc2ccccc2)NC(=O)OC(C)(C)C)C(=O)N[C@H]2c3ccccc3C[C@H]2O)cc1 [tert-butyl N-[(2S,3S,5R)-5-({4-[2-(dimethylamino)ethoxy]phenyl}methyl)-3-hydroxy-5-{[(1S,2R)-2-hydroxy-2,3-dihydro-1H-inden-1-yl]carbamoyl}-1-phenylpentan-2-yl]carbamate] | 2.1 nM
CC(C)(C)OC(=O)N[C@@H](Cc1ccccc1)[C@@H](O)C[C@@H](Cc1ccc(OCCN2CCS(=O)(=O)CC2)cc1)C(=O)N[C@H]1c2ccccc2C[C@H]1O [N-(2(R)-Hydroxy-1(S)-indanyl)-5(S)-[(tert-butyloxycarbonyl)amino]-4(S)-hydroxy-6-phenyl-2(R)-[[4-[2-(1,1-dioxythiamorpholin-4-yl)ethoxy]phenyl]methyl]hexanamide] | 0.08 nM
CC(C)(C)OC(=O)N[C@@H](Cc1ccc(O)cc1)[C@@H](O)C[C@@H](Cc1ccccc1)C(=O)N[C@H]1c2ccccc2C[C@H]1O [N-(2(R)-Hydroxy-1(S)-indanyl)-5(S)-[(tert-butyloxycarbonyl)amino]-4(S)-hydroxy-6-(4-hydroxyphenyl)-2-(R)-(phenylmethyl)hexanamide] | 0.35 nM
CC(C)(C)OC(=O)N[C@@H](Cc1ccccc1)[C@@H](O)C[C@@H](Cc1ccc(OCC[N+]2(O)CCOCC2)cc1)C(=O)N[C@H]1c2ccccc2C[C@H]1O [4-(2-{4-[(2R)-2-[(2S,3S)-3-{[(tert-butoxy)carbonyl]amino}-2-hydroxy-4-phenylbutyl]-2-{[(1S,2R)-2-hydroxy-2,3-dihydro-1H-inden-1-yl]carbamoyl}ethyl]phenoxy}ethyl)-4-hydroxymorpholin-4-ium] | 0.2 nM
COCCN(CCOC)CCOc1ccc(C[C@H](C[C@H](O)[C@H](Cc2ccccc2)NC(=O)OC(C)(C)C)C(=O)N[C@H]2c3ccccc3C[C@H]2O)cc1 [N-(2(R)-Hydroxy-1(S)-indanyl)-5(S)-[(tert-butyloxycarbonyl)amino]-4(S)-hydroxy-6-phenyl-2(R)-[[4-[2-[N,N-bis(2-methoxyethyl)amino]ethoxy]phenyl]methyl]hexanamide] | 0.9 nM
CC(C)(C)OC(=O)N[C@@H](Cc1ccccc1)[C@@H](O)C[C@@H](Cc1ccc(OCCO)cc1)C(=O)N[C@H]1c2ccccc2C[C@H]1O [tert-butyl N-[(2S,3S,5R)-3-hydroxy-5-{[(1S,2R)-2-hydroxy-2,3-dihydro-1H-inden-1-yl]carbamoyl}-5-{[4-(2-hydroxyethoxy)phenyl]methyl}-1-phenylpentan-2-yl]carbamate] | 0.09 nM
CC(C)(C)OC(=O)N[C@@H](Cc1ccccc1)[C@@H](O)C[C@@H](Cc1ccc(OCC(=O)O)cc1)C(=O)N[C@H]1c2ccccc2C[C@H]1O [2-{4-[(2R)-2-[(2S,3S)-3-{[(tert-butoxy)carbonyl]amino}-2-hydroxy-4-phenylbutyl]-2-{[(1S,2R)-2-hydroxy-2,3-dihydro-1H-inden-1-yl]carbamoyl}ethyl]phenoxy}acetic acid] | 0.04 nM
CC(C)(C)OC(=O)N[C@@H](Cc1ccccc1)[C@@H](O)C[C@@H](Cc1ccc(OCC(=O)N2CCOCC2)cc1)C(=O)N[C@H]1c2ccccc2C[C@H]1O [tert-butyl N-[(2S,3S,5R)-3-hydroxy-5-{[(1S,2R)-2-hydroxy-2,3-dihydro-1H-inden-1-yl]carbamoyl}-5-({4-[2-(morpholin-4-yl)-2-oxoethoxy]phenyl}methyl)-1-phenylpentan-2-yl]carbamate] | 0.2 nM
CC(C)(C)OC(=O)N[C@@H](Cc1ccc(O)cc1)[C@@H](O)C[C@@H](Cc1ccc(O)cc1)C(=O)N[C@H]1c2ccccc2C[C@H]1O [N-(2(R)-Hydroxy-1(S)-indanyl)-5(S)-[(tert-butyloxycarbonyl)amino]-4(S)-hydroxy-6-(4-hydroxyphenyl)-2-(R)-[(4-hydroxyphenyl)methyl]hexanamide] | 0.15 nM
CN1CCN(CCOc2ccc(C[C@H](C[C@H](O)[C@H](Cc3ccccc3)NC(=O)OC(C)(C)C)C(=O)N[C@H]3c4ccccc4C[C@H]3O)cc2)CC1 [tert-butyl N-[(2S,3S,5R)-3-hydroxy-5-{[(1S,2R)-2-hydroxy-2,3-dihydro-1H-inden-1-yl]carbamoyl}-5-({4-[2-(4-methylpiperazin-1-yl)ethoxy]phenyl}methyl)-1-phenylpentan-2-yl]carbamate] | 0.2 nM
